This passage reports Activity, MIC and Km results from ChEMBL document CHEMBL6087449, “Identification of an Isoxazole Derivative as an Antitubercular Compound for Targeting the FadD Enzymes of Mycobacterium tuberculosis” (J Med Chem, 2025).

Activity calls are given as the source filed them. No cut-off for these calls is given here. Where only a bound is given, the exact number is not on record here.

The test system of data set [1] is Mycobacterium tuberculosis. Put plainly: Antitubercular activity against Mycobacterium tuberculosis H37Rv assessed as inhibition of bacterial growth incubated for 5 days by Alamar Blue based assay. Format: functional, organism-based. The conditions noted are these: time 5.0 day. For orientation: Resazurin is reduced to fluorescent resorufin, in cell work by metabolically active cells.

Data set [2] relates to Mycobacterium tuberculosis. Description: Antitubercular activity against Mycobacterium tuberculosis by alamar blue assay. Type of data set: functional.
Compound in data set [3]: Oc1c(Br)cc(Br)cc1-c1cc(C(F)(F)F)no1
Description: Binding affinity to Mycobacterium tuberculosis H37Rv recombinant FadD32 assessed as Km in presence of ATP by Michaelis-Menten plot analysis.

Compound in data set [4]: Oc1c(Br)cc(Br)cc1-c1cc(C(F)(F)F)no1
Description: Binding affinity to Mycobacterium tuberculosis H37Rv recombinant FadD32 assessed as Km in presence of lauric acid by Michaelis-Menten plot analysis.

On to `Oc1ccc(-c2onc(C(F)(F)F)c2-c2ccc(Cl)cc2)c(O)c1`, for which, in data set [1], the result was inactive.

As for `Nc1ncnc2c1ncn2[C@@H]1O[C@H](COS(=O)(=O)NC(=O)c2ccc(O)cc2)[C@@H](O)[C@H]1O`, in data set [2], the MIC was above 800 µM.

B1: Long-chain-fatty-acid--AMP ligase FadD32 (Mycobacterium tuberculosis (strain ATCC 25618 / H37Rv)), O53580 (protein)
chain: MFVTGESGMAYHNPFIVNGKIRFPANTNLVRHVEKWAKVRGDKLAYRFLDFSTERDGVARDILWSDFSARNRAVGARLQQVTQPGDRVAILCPQNLDYLISFFGALYSGRIAVPLFDPAEPGHVGRLHAVLDDCAPSTILTTTDSAEGVRKFIRARSAKERPRVIAVDAVPTEVAATWQQPEANEETVAYLQYTSGSTRIPSGVQITHLNLPTNVVQVLNALEGQEGDRGVSWLPFFHDMGLITVLLASVLGHSFTFMTPAAFVRRPGRWIRELARKPGETGGTFSAAPNFAFEHAAVRGVPRDDEPPLDLSNVKGILNGSEPVSPASMRKFFEAFAPYGLKQTAVKPSYGLAEATLFVSTTPMDEVPTVIHVDRDELNNQRFVEVAADAPNAVAQVSAGKVGVSEWAVIVDADTASELPDGQIGEIWLHGNNLGTGYWGKEEESAQTFKNILKSRISESRAEGAPDDALWVRTGDYGTYFKDHLYIAGRIKDLVIIDGRNHYPQDLECTAQESTKALRVGYAAAFSVPANQLPQTVFDDSHAGLKFDPEDTSEQLVIVGERAAGTHKLDHQPIVDDIRAAIAVGHGVTVRDVLLVSAGTIPRTSSGKIGRRACRAAYLDGSLRSGVGSPTVFATSD
B1: the Km in data set [3] is 248 µM; in data set [4] it was 139 µM.

One may read the MIC as the lowest concentration that inhibits growth of the organism. A high value points to weaker potency. As a reminder, the Km is the concentration of substrate that gives half-maximal velocity.
